Laboratory results as given in ChEMBL document CHEMBL5241071, “Covalent Small Molecule Immunomodulators Targeting the Protease Active Site” (J Med Chem, 2021).

Tests used:
[1] = molecular target: T1, Granzyme A (Homo sapiens) (UniProt P12544); assay: Inhibition of human recombinant GzmA assessed as Kobs/[I]
T1 sequence (whole entry): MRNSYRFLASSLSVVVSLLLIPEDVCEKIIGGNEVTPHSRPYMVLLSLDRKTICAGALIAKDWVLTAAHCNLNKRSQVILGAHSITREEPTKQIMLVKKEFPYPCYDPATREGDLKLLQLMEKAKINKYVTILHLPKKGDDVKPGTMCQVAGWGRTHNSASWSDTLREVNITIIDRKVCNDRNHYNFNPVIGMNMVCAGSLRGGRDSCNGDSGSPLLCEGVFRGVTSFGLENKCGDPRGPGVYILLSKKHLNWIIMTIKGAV

Neutrophil elastase = molecular target: T2, Neutrophil elastase (Homo sapiens, UniProt P08246); assay: Inhibition of human NE
T2 sequence (P08246 whole entry): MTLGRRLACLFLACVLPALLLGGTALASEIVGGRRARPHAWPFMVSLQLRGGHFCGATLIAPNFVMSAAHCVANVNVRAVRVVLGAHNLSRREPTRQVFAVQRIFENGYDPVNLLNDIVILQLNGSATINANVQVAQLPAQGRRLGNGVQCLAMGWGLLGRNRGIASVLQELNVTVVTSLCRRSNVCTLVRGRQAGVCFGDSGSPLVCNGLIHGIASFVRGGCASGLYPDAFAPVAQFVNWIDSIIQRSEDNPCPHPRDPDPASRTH

Row | SMILES | kobs/[I] [1] | IC50 (Neutrophil elastase)
1 | N=C(N)SCCOc1oc(=O)c2cc(NC(=O)Nc3ccccc3)ccc2c1Cl | 94000 M⁻¹ s⁻¹ | –
2 | O=S(=O)(F)Oc1ccccc1S(=O)(=O)F | – | 240 nM
